Laboratory results from patent US20090305995A1, “AGONISTS AND ANTAGONISTS OF THE SOMATOSTATIN RECEPTOR” (Novartis AG, priority 2004, published 2009).
In brackets after ≈: the same amount, converted by molar mass. Read-outs that look alike come from different tables or passages of the source.

Assays:
Type in all cases: physicochemical
[1] = high throughput solubility (HT-Solubility); conditions: for water solubility (in words): see FIG. 10
[2] = high throughput permeability (HT-Permeability, log Pe); conditions: PAMPA, Pe in cm/s
[3] = HT-logP o/w, high throughput assay based on artificial liquid membrane permeability
Excerpt: To be absorbed and transported by passive diffusion, drugs must be sufficiently lipophilic to penetrate the lipid cores of membranes, but not too lipophilic that they get retained and accumulated there. The lipophilictity of a compound is expressed by the octanol/water partition coefficient or distribution coefficient. A first approximation of substance polarity can either be given by computer assisted calculations giving Clog P values or by measurement of the partition coefficients in high-throughput assays (HT-log P o/w) (Faller et al., 2004; Wohnsland et al., 2001).
Octanol/water partition coefficients are measured in a high throughput assay based on artificial liquid membrane permeability. […] Still many approaches to calculate log P values are limited due to a lack of parameterization of certain fragments and fail with increasing molecular weight which implicates higher structural complexity. Similar problems and failures are observed in chromatographic determinations of log P: Peptides might undergo structural changes driven by interactions with the stationary phase. Decisive interactions between the stationary phase and the defolded analytes are therefore also based on the linear peptide sequence. For this reason measured HT-log P o/w values based on chromatographic assays employing stationary phases may lead to erroneous results.

[4] = pH 1, pH 1.0, read-out: HT-Solubility pH 1.0
[5] = pH 6.8, pH 6.8, read-out: HT-Solubility pH 6.8
[6] = pH 4, pH 4.0, read-out: HT-Permeability logPe pH 4.0 (converted)
[7] = octanol/water, read-out: HT LogP ohw
[8] = pH 8, pH 8.0, read-out: HT-Permeability logPe pH 8.0 (converted)
[9] = pH 6.8, pH 6.8, read-out: HT-Permeability logPe pH 6.8 (converted)
[10] = octanol/water; read-out: HT LogP ohw

## CCN(CC)C(=O)C[C@@H](NC(=O)C[C@H](CCCCN)NC(=O)[C@@H](Cc1c[nH]c2ccccc12)NC(=O)C[C@H](Cc1ccccc1)NC(=O)CCc1ccccc1)C(C)C [Compound 24, Dihydrocinnemoyl-(S)-β^3-HPhe-(R)-Trp-(S)-β^3-HLys-(R)-β^3-Leu-diethyl-amide]
[1]; [4]
  solubility: 16.2 µg/mL (≈ 20 µM)
[1]; [5]
  solubility: 16.2 µg/mL (≈ 20 µM)
[2]; [6]
  Papp: 0.1 ×10⁻⁶ cm/s
[3]; [7]
  logP: 4.1

## C[C@H]1OC(=O)C[C@H]1NC(=O)C[C@H](CCCCN)NC(=O)[C@@H](Cc1c[nH]c2ccccc12)NC(=O)C[C@@H](N)Cc1ccccc1 [Compound 29]
[1]
  HT-Solubility pH 1.0: 0.121 g 1-1
  HT-Solubility pH 6.8: 0.121 g 1-1
[3]; octanol/water
  HT LogP ohw: 3.3

## CCCCCNC(=O)C[C@H](CCCCN)NC(=O)[C@@H](Cc1c[nH]c2ccccc12)NC(=O)C[C@H](Cc1ccccc1)NC(C)=O [Compound 45, Ace-(S)-β^3-HPhe-(R)-Trp-(S)-β^3-HLys-pentyl-amide]
[1]
  HT-Solubility pH 1.0: 0.1236 g 1-1
  HT-Solubility pH 6.8: 0.0619 g 1-1
  water solubility (in words): medium to good
[3]; octanol/water
  HT LogP ohw: 3.2

## C[C@H]1OC(=O)C[C@H]1NC(=O)C[C@H](CCCCN)NC(=O)[C@@H](Cc1c[nH]c2ccccc12)NC(=O)C[C@H](Cc1ccccc1)NC(=O)C12CC3CC(CC(C3)C1)C2 [Compound 13, Adamantoyl-(S)-β^3-HPhe-(R)-Trp-(S)-β^3-HLys-(R)-4-amino-(R)-5-methyl-dihydro-furan-2-one]
[1]; [4]
  solubility: 153 µg/mL (≈ 200 µM)
[1]; [5]
  solubility: 76.7 µg/mL (≈ 100 µM)
[1]
  water solubility (in words): good water solubility
[2]; [6]
  Papp: 3.16 ×10⁻⁶ cm/s
[2]; [8]
  Papp: 10 ×10⁻⁶ cm/s
[3]; [7]
  logP: 2.8

## CCCCCCCCC(=O)N[C@H](CC(=O)N[C@H](Cc1c[nH]c2ccccc12)C(=O)N[C@@H](CCCCN)CC(=O)N[C@H](CC(N)=O)[C@@H](C)O)Cc1ccccc1 [Compound 17, Nonanoyl-(S)-β^3-HPhe-(R)-Trp-(S)-β^3-HLys-(R), (R)—HThr-NH2]
[1]; [4]
  solubility: 15.2 µg/mL (≈ 19.9 µM)
[1]; [5]
  solubility: 15.2 µg/mL (≈ 19.9 µM)
[2]; [6]
  Papp: 12.6 ×10⁻⁶ cm/s
[2]; [9]
  Papp: 2.51 ×10⁻⁶ cm/s
[3]; [7]
  logP: 4.2

## CC(=O)N[C@H](CC(=O)N(C)[C@H](Cc1cn(C)c2ccccc12)C(=O)N[C@@H](CCCCN)CC(=O)N[C@@H]1CC(=O)O[C@@H]1C)Cc1ccccc1 [Compound 37, Ac—(S)-β^3-HPhe-(R)—N-Me-1-Me-Trp-(S)-β^3-HLys-(R)-4-amino-(R)-5-methyl-dihydro-furan-2-one]
[1]; [4]
  solubility: 135 µg/mL (≈ 200 µM)
[1]; [5]
  solubility: 67.5 µg/mL (≈ 100 µM)
[2]; [6]
  Papp: 6.31 ×10⁻⁶ cm/s
[2]; [9]
  Papp: 5.01 ×10⁻⁶ cm/s
[3]; [7]
  logP: 2.4

## CC(=O)N[C@H](CC(=O)N[C@H](Cc1c[nH]c2ccccc12)C(=O)N[C@@H](CCCCN)CC(N)=O)Cc1ccccc1 [Compound 58, Ace-(S)-β^3-HPhe-(R)-Trp-(S)-β^3-HLys-NH2]
[1]; [4]
  solubility: 110 µg/mL (≈ 200 µM)
[1]; [5]
  solubility: 110 µg/mL (≈ 200 µM)
[2]; [6]
  Papp: 1 ×10⁻⁶ cm/s
[2]; [9]
  Papp: 5.01 ×10⁻⁶ cm/s

## CCC(=O)N[C@H](CC(=O)N[C@H](Cc1c[nH]c2ccccc12)C(=O)N[C@@H](CCCCN)CC(N)=O)Cc1ccccc1 [Compound 60, Propionyl-(S)-β^3-HPhe-(R)-Trp-(S)-β^3-HLys-NH2]
[1]; [4]
  solubility: 112 µg/mL (≈ 200 µM)
[1]; [5]
  solubility: 112 µg/mL (≈ 200 µM)
[2]; [6]
  Papp: 3.16 ×10⁻⁶ cm/s
[2]; [9]
  Papp: 7.94 ×10⁻⁶ cm/s
[2]; [8]
  Papp: 1.26 ×10⁻⁶ cm/s

## CC(=O)N[C@H](CC(=O)N[C@H](Cc1c[nH]c2ccccc12)C(=O)N[C@@H](CCCCN)CC(=O)NC1CCCC1)Cc1ccccc1 [Compound 31, Ac—(S)-β^3-HPhe-(R)-Trp-(S)-β^3-HLys-cyclopentyl-amide]
[1]; [4]
  solubility: 123 µg/mL (≈ 200 µM)
[1]; [5]
  solubility: 123 µg/mL (≈ 200 µM)
[2]; [6]
  Papp: 2.51 ×10⁻⁶ cm/s
[2]; [9]
  Papp: 2 ×10⁻⁶ cm/s
[2]; [8]
  Papp: 1 ×10⁻⁶ cm/s
[3]; [7]
  logP: 2.8

## CC(=O)N[C@H](CC(=O)N[C@H](Cc1c[nH]c2ccccc12)C(=O)N[C@@H](CCCCN)CC(=O)N[C@@H]1CC(=O)O[C@@H]1C)Cc1ccccc1 [Compound 7, Ac—(S)-β^3-HPhe-(R)-Trp-(S)-β^3-HLys-(R)-4-amino-(R)-5-methyl-dihydro-furan-2-one]
[1]; [4]
  solubility: 129 µg/mL (≈ 200 µM)
[1]; [5]
  solubility: 129 µg/mL (≈ 200 µM)

## CC(=O)N(C)[C@H](CC(=O)N[C@H](Cc1c[nH]c2ccccc12)C(=O)N[C@@H](CCCCN)CC(=O)N[C@@H]1CC(=O)O[C@@H]1C)Cc1ccccc1 [Compound 39, Ac—N-Me-(S)-β^3-HPhe-(R)-Trp-(S)-β^3-HLys-(R)-4-amino-(R)-5-methyl-dihydro-furan-2-one]
[1]; [4]
  solubility: 132 µg/mL (≈ 200 µM)
[1]; [5]
  solubility: 132 µg/mL (≈ 200 µM)
[2]; [6]
  Papp: 5.01 ×10⁻⁶ cm/s
[2]; [9]
  Papp: 2 ×10⁻⁶ cm/s
[2]; [8]
  Papp: 3.16 ×10⁻⁶ cm/s
[3]; [7]
  logP: 3.4

## CN[C@H](CC(=O)N[C@H](Cc1c[nH]c2ccccc12)C(=O)N[C@@H](CCCCN)CC(=O)N[C@@H]1CC(=O)O[C@@H]1C)Cc1ccccc1 [Compound 38, N-Me-(S)-β^3-HPhe-(R)-Trp-(S)-β^3-HLys-(R)-4-amino-(R)-5-methyl-dihydro-furan-2-one]
[1]; [4]
  solubility: 124 µg/mL (≈ 200 µM)
[1]; [5]
  solubility: 30.9 µg/mL (≈ 49.9 µM)
[2]; [6]
  Papp: 0.1 ×10⁻⁶ cm/s
[3]; [7]
  logP: 3.2

## CCCCN(C)C(=O)C[C@H](CCCCN)NC(=O)[C@@H](Cc1c[nH]c2ccccc12)NC(=O)C[C@H](Cc1ccccc1)NC(=O)CC [Compound 43, Propionyl-(S)-β^3-HPhe-(R)-Trp-(S)-β^3-HLys-methyl-butyl-amide]
[1]; [4]
  solubility: 127 µg/mL (≈ 200 µM)
[1]; [5]
  solubility: 126 µg/mL (≈ 200 µM)
[1]
  water solubility (in words): highest solubility values
[2]; [6]
  Papp: 1 ×10⁻⁶ cm/s
[2]; [9]
  Papp: 2 ×10⁻⁶ cm/s
[2]; [8]
  Papp: 1.26 ×10⁻⁶ cm/s
[3]; [7]
  logP: 3

## C[C@@H](O)[C@@H](CC(N)=O)NC(=O)C[C@H](CCCCN)NC(=O)[C@@H](Cc1c[nH]c2ccccc12)NC(=O)C[C@@H](N)Cc1ccccc1 [Compound 36, (S)-β^3-HPhe-(R)-Trp-(S)-β^3-HLys-(R), (R)—HThr-NH2]
[1]; [4]
  solubility: 124 µg/mL (≈ 200 µM)
[1]; [5]
  solubility: 124 µg/mL (≈ 200 µM)
[2]; [6]
  Papp: 1.58 ×10⁻⁶ cm/s
[2]; [8]
  Papp: 2 ×10⁻⁶ cm/s

## CC(C)[C@@H](CC(=O)N(C)CCc1ccccc1)NC(=O)C[C@H](CCCCN)NC(=O)[C@@H](Cc1c[nH]c2ccccc12)NC(=O)C[C@H](Cc1ccccc1)NC(=O)C12CC3CC(CC(C3)C1)C2 [Compound 27, Adamantoyl-(S)-β^3-HPhe-(R)-Trp-(S)-β^3-HLys-(R)-β^3-Leu-methyl-phenethyl-amide]
[1]; [4]
  solubility: 45 µg/mL (≈ 50 µM)
[1]; [5]
  solubility: 9 µg/mL (≈ 10 µM)

## CCCCCN(C)C(=O)C[C@H](CCCCN)NC(=O)[C@@H](Cc1c[nH]c2ccccc12)N(C)C(=O)C[C@H](Cc1ccccc1)NC(=O)CC [Compound 63, Propionyl-(S)-β^3-HPhe-(R)—N-Me-Trp-(S)-β^3-HLys-methyl-pentyl-amide]
[1]; [4]
  solubility: 132 µg/mL (≈ 200 µM)
[1]; [5]
  solubility: 132 µg/mL (≈ 200 µM)
[1]
  water solubility (in words): highest solubility values
[3]; [10]
  logP: 3.9

## CCCCCCN(C)C(=O)C[C@H](CCCCN)NC(=O)[C@@H](Cc1c[nH]c2ccccc12)N(Cc1ccccc1)C(=O)C[C@H](Cc1ccccc1)NC(=O)CC [Compound 69, Propionyl-(S)-β^3-HPhe-(R)—N-Benzyl-Trp-(S)-β^3-HLys-methyl-hexyl-amide]
[1]
  HT-Solubility pH 1.0: 0.0751 g 1-1
  HT-Solubility pH 6.8: 0.015 g 1-1
  water solubility (in words): does not allow for good water solubilities
[3]; octanol/water
  HT LogP ohw: 5.1

## CCCCCNC(=O)C[C@H](CCCCN)NC(=O)[C@@H](Cc1c[nH]c2ccccc12)NC(=O)C[C@H](Cc1ccccc1)NC(=O)CC [Compound 50]
[1]; [4]
  solubility: 127 µg/mL (≈ 200 µM)
[1]
  water solubility (in words): medium to good
[3]; [10]
  logP: 3.4

## C[C@@H](O)[C@@H](CC(N)=O)NC(=O)C[C@H](CCCCN)NC(=O)[C@@H](Cc1c[nH]c2ccccc12)NC(=O)C[C@H](Cc1ccccc1)NC(=O)C1CCCCC1 [Compound 26, Cyclohexanoyl-(S)-β^3-HPhe-(R)-Trp-(S)-β^3-HLys-(R), (R)—HThr-NH2]
[1]; [4]
  solubility: 7.3 µg/mL (≈ 9.97 µM)
[1]; [5]
  solubility: 1.5 µg/mL (≈ 2.05 µM)
[3]; [7]
  logP: 3.3

## CC(=O)N[C@H](CC(=O)N[C@H](Cc1c[nH]c2ccccc12)C(=O)N[C@@H](CCCCN)CC(=O)N[C@H](CC(N)=O)[C@@H](C)O)Cc1ccccc1 [Compound 2, Ac—(S)-β^3-HPhe-(R)-Trp-(S)-β^3-HLys-(R), (R)—HThr-NH2]
[1]; [4]
  solubility: 13.3 µg/mL (≈ 20 µM)
[1]; [5]
  solubility: 13.3 µg/mL (≈ 20 µM)
[2]; [6]
  Papp: 0.1 ×10⁻⁶ cm/s
